Laboratory results: PMC8301776, “New Hybrid Compounds Combining Fragments of Usnic Acid and Monoterpenoids for Effective Tyrosyl-DNA Phosphodiesterase 1 Inhibition” (Biomolecules, 2021)
pIC50: −log10 of the molar value. “Also recorded” adds a separate entry of the source. Like-named read-outs stand apart in the source and are kept apart here.

Assays:
HEK293A WT cells [1] = experiment: xCELLigence impedance-based real-time cell growth assay, alone or with Tpc; parameters: species or system human
Protocol: (§1) Cytotoxicity of the compounds was examined against human cell lines HEK293A (human embryonic kidney)—WT and TDP1-deficient (Tdp1-/-), and HeLa (cervical cancer) using an EZ4U colorimetric tests (Biomedica, Vienna, Austria) or xCELLigence DP Real-Time Cell Analyzer (ACEA Biosciences, Santa Clara, CA, USA). Cell lines were obtained from the Russian Cell Culture Collection (RCCC) Institute of Cytology RAS (St. Petersburg, Russia). The cells were grown in DMEM/F12 medium (Thermo Fisher Scientific, Waltham, MA, USA), with 1× GlutaMAX (Thermo Fisher Scientific, Waltham, MA, USA), 50 IU/mL penicillin, and 50 μg/mL streptomycin (Thermo Fisher Scientific, Waltham, MA, USA), and in the presence of 10% fetal bovine serum (Biolot, Saint-Petersburg, Russia) in 5% CO2 atmosphere. Control cells were grown in the presence of 1% DMSO where indicated. After formation of a 30–50% monolayer, tested compounds were added to the medium, and the cell culture was monitored for 3 days. […] The measurements were carried out in three parallel experiments.
This stimulation was also confirmed for HEK293A WT cells using the xCELLigence DP Real-Time Cell Analyzer impedance-based assay (Figure 9). […] The stimulation effect depends on the concentration of compounds 11a and 11c (Figure 9B,C).
(A). Cell growth of HEK293A cells in the control wells without compounds added (black), with 50 nM Tpc (red), 40 µM 11a (dark green), or 40 µ M 11c (violet). (B,C) Cell growth of HEK293A cells with 50 nM Tpc only (red) and in combination with 5 µM (green), 10 µM (dark blue), 20 µM (pink), or 40 µM (blue) 11a (B) or 11c (C).

HEK293A WT cells [2] = experiment: Topotecan cytotoxicity in combination with TDP1 inhibitors, colorimetric test, HEK293A WT; assay type: cell-based, human
Protocol: as §1
There was no difference between WT and the mutant cells.

HeLa cells [3] = experiment: Intrinsic cytotoxicity, EZ4U colorimetric test, HeLa; assay type: cell-based, human; settings: Figure 6
Protocol: as §1
(§2) The intrinsic cytotoxicity of the four lead compounds (11a–d) was examined using a colorimetric test (Figure 6).

HEK293A TDP1-/- cells = experiment: Topotecan cytotoxicity alone or in combination, colorimetric test, HEK293A TDP1-/- clones C6, G6, F7; assay type: cell-based, human; settings: HEK293A Tdp1-/- cells; combination with Tpc
From the text: TDP1 knockout HEK293A clones were obtained in the same way as the previously described TDP1 knockout HEK293FT clones. Briefly, two 20-nt protospacer sequences flanking the first protein coding exon of human TDP1 gene were selected using https://www.benchling.com/ (accessed date 1 November 2020). Oligonucleotides were cloned in plasmid pSpCas9(BB)-2A-GFP (PX458). pSpCas9(BB)-2A-GFP (PX458) was a gift from Feng Zhang (Addgene plasmid # 48138; http://n2t.net/addgene:48138; RRID: Addgene_48138). HEK293A cells were transfected with plasmids pX458-TDP1-gRNA1 and pX458-TDP1-gRNA2 (0.25 µg of each) using Lipofectamine 3000 Reagent (Thermofisher Scientific, Waltham, MA, USA). Growth medium contained DMEM/F12 (Thermofisher Scientific, Waltham, MA, USA) 1:1, 10% FBS (Thermofisher Scientific, Waltham, MA, USA), 100 U/mL penicillin–streptomycin (Thermofisher Scientific, Waltham, MA, USA), and 1 × GlutaMAX (Thermofisher Scientific, Waltham, MA, USA). […] Single cell clones grew for two weeks, and genome DNA was analyzed on CRISPR/Cas9-mediated deletions in TDP1 gene by PCR amplification of target region with primers: TDP1-scF 5′-[…]-3′ and TDP1-scR 5′-[…]-3′. […]
Cytotoxicity of the compounds was examined against human cell lines HEK293A (human embryonic kidney)—WT and TDP1-deficient (Tdp1-/-), and HeLa (cervical cancer) using an EZ4U colorimetric tests (Biomedica, Vienna, Austria) or xCELLigence DP Real-Time Cell Analyzer (ACEA Biosciences, Santa Clara, CA, USA). […] After formation of a 30–50% monolayer, tested compounds were added to the medium, and the cell culture was monitored for 3 days. […]
In our previous work, the cytotoxic effect of Tpc and the TDP1 inhibitors, monoterpene 3-carene derivatives, was established; both were measured separately and jointly using a panel of HEK293FT TDP1 knockout isogenic clones. […] No cleavage activity was detected in the clones’ C6, G6, and F7 cell extracts in contrast to control WT and purified TDP1. […]

TDP1 = biological target: T1, TDP1 (Homo sapiens, UniProt Q9NUW8); experiment: Real-time fluorescence detection of TDP1 activity (FAM/BHQ1 oligonucleotide biosensor); assay type: biochemical
T1 construct: made in house; host or cells: E. coli
T1 sequence (Q9NUW8 whole entry): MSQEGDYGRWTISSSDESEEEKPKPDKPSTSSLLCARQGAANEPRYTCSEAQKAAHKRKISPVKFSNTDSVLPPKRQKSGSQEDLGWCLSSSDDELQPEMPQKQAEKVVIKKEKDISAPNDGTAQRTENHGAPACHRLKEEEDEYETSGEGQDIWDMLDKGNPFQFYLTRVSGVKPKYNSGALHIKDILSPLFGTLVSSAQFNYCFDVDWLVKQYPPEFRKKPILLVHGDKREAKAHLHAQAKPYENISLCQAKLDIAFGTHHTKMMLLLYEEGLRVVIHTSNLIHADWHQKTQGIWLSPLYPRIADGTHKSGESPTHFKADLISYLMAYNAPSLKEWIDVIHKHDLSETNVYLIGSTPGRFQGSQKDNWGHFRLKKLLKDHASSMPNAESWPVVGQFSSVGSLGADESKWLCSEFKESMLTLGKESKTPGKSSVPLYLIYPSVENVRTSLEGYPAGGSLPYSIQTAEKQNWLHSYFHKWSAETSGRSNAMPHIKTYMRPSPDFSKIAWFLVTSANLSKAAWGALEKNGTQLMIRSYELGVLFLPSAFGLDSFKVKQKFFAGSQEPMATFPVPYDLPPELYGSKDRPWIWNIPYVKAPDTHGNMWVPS

HEK293A cells = experiment: Intrinsic cytotoxicity, EZ4U colorimetric test, HEK293A; assay type: cell-based, human; settings: Figure 6
Protocol: as §1, §2

HeLa cells [4] = experiment: Topotecan cytotoxicity in combination with TDP1 inhibitors, colorimetric test, HeLa; assay type: cell-based, human
Protocol: as §1
The combination index (CI) values were determined for different concentrations of Tpc and the enamines 11a–d at 2 and 5 μM. […] The CI values were calculated with the CompuSyn version 1.0 software. The CI plot at different fraction-affected (Fa) was determined for Tpc (0.3, 0.5, 1, 2, and 4 μM) and the Tdp1 inhibitors (2 and 5 μM).

[5] = as repeated in Table S1, read-out: IC50
[6] = as repeated in Table S2, read-out: IC50
[7] = as repeated in Table S3, read-out: IC50
[8] = real-time fluorescent test, 1.5 nM TDP1, 50 nM substrate, 26 °C, read-out: IC50, TDP1 activity

Compound | pIC50 (TDP1; [5]) | pIC50 (TDP1; [6]) | pIC50 (TDP1; [7]) | IC50, TDP1 activity (TDP1; real-time fluorescent test, 1.5 nM TDP1, 50 nM substrate, 26 °C) | pIC50 (TDP1; [8]) | effect on cell growth with Tpc, compared to Tpc (HEK293A WT cells [1]; 50 nM Tpc + 5, 10, 20 or 40 µM compound) | toxicity of compound alone (in words) (HEK293A WT cells [1]; 40 µM compound) | effect on Tpc cytotoxicity / cell growth, compared to Tpc (in words) (HEK293A WT cells [2]) | intrinsic cytotoxicity (in words) (HeLa cells [3]) | effect on cell growth in combination with Tpc, compared to Tpc (in words) (HEK293A TDP1-/- cells) | intrinsic cytotoxicity (in words) (HEK293A cells) | effect on Tpc cytotoxicity (in words) (HeLa cells [4])
CC(=O)c1c(O)c(C)c(O)c2c1OC1=CC(=O)/C(=C(/C)NCC[C@@H](C)CCC=C(C)C)C(=O)[C@@]12C [11a, (2R,4E)-10-Acetyl-4-(1-{[(3S)-3,7-dimethyloct-6-en-1-yl]amino}ethylidene)-11,13-dihydroxy-2,12-dimethyl-8-oxatricyclo[7.4.0.0^2,7]trideca-1(13),6,9,11-tetraene-3,5-dione] | 6.40 | – | – | – | – | stimulated cell growth | modestly toxic | reduced it; also recorded: stimulation of cell growth; also recorded: stimulated cell growth | non-cytotoxic | stimulation of cell growth | non-cytotoxic | enhanced topotecan’s cytotoxicity; also recorded: synergistic effect; also recorded: enhanced Tpc cytotoxicity
CC(=O)c1c(O)c(C)c(O)c2c1OC1=CC(=O)/C(=C(/C)NC/C=C(\C)CCC=C(C)C)C(=O)[C@@]12C [11b, (2R,4E)-10-Acetyl-4-(1-{[(2E)-3,7-dimethylocta-2,6-dien-1-yl]amino}ethylidene)-11,13-dihydroxy-2,12-dimethyl-8-oxatricyclo[7.4.0.0^2,7]trideca-1(13),6,9,11-tetraene-3,5-dione] | 6.49 | – | – | – | – | – | – | – | completely suppressed cell growth at 100 μM | – | completely suppressed cell growth at 100 μM | –
CC(=O)c1c(O)c(C)c(O)c2c1OC1=CC(=O)/C(=C(/C)NCC3=CC[C@H]4C[C@@H]3C4(C)C)C(=O)[C@@]12C [11d, (2R,4E)-10-Acetyl-4-[1-({[(1R,5S)-6,6-dimethylbicyclo[3.1.1]hept-2-en-2-yl]methyl}amino)ethylidene]-11,13-dihydroxy-2,12-dimethyl-8-oxatricyclo[7.4.0.0^2,7]trideca-1(13),6,9,11-tetraene-3,5-dione] | 6.64 | – | – | – | – | – | – | – | completely suppressed cell growth at 100 μM | – | completely suppressed cell growth at 100 μM | –
C=C(C)[C@@H]1CC=C(CN/C(C)=C2\C(=O)C=C3Oc4c(C(C)=O)c(O)c(C)c(O)c4[C@@]3(C)C2=O)CC1 [11e, (2R,4E)-10-Acetyl-11,13-dihydroxy-2,12-dimethyl-4-[1-({[(4S)-4-(prop-1-en-2-yl)cyclohex-1-en-1-yl]methyl}amino)ethylidene]-8-oxatricyclo[7.4.0.0^2,7]trideca-1(13),6,9,11-tetraene-3,5-dione] | < 5.00 | < 5.00 | < 5.00 | did not inhibit the enzyme | < 5.00 | – | – | – | – | – | – | –

More lines, main results first:

pIC50 (TDP1; [5]) | pIC50 (TDP1; [6]) | pIC50 (TDP1; [7]) | IC50, TDP1 activity (TDP1; real-time fluorescent test, 1.5 nM TDP1, 50 nM substrate, 26 °C) | pIC50 (TDP1; [8]) | Compound | effect on cell growth with Tpc, compared to Tpc (HEK293A WT cells [1]; 50 nM Tpc + 5, 10, 20 or 40 µM compound) | toxicity of compound alone (in words) (HEK293A WT cells [1]; 40 µM compound) | effect on Tpc cytotoxicity / cell growth, compared to Tpc (in words) (HEK293A WT cells [2]) | intrinsic cytotoxicity (in words) (HeLa cells [3]) | effect on cell growth in combination with Tpc, compared to Tpc (in words) (HEK293A TDP1-/- cells) | intrinsic cytotoxicity (in words) (HEK293A cells) | effect on Tpc cytotoxicity (in words) (HeLa cells [4])
< 5.00 | < 5.00 | < 5.00 | – | < 5.00 | CC(=O)c1c(O)c(C)c(O)c2c1OC1=CC(=O)/C(=C(/C)NCCCC(=O)OCC[C@H](C)CCC=C(C)C)C(=O)[C@@]12C [13a, (3R)-3,7-Dimethyloct-6-en-1-yl 4-({1-[(2R,4E)-10-acetyl-11,13-dihydroxy-2,12-dimethyl-3,5-dioxo-8-oxatricyclo[7.4.0.0^2,7]trideca-1(13),6,9,11-tetraen-4-ylidene]ethyl}amino)butanoate] | – | – | – | – | – | – | –
< 5.00 | < 5.00 | < 5.00 | – | < 5.00 | CC(=O)c1c(O)c(C)c(O)c2c1OC1=CC(=O)/C(=C(/C)NCCCC(=O)OC/C=C(\C)CCC=C(C)C)C(=O)[C@@]12C [13b, (2E)-3,7-Dimethylocta-2,6-dien-1-yl 4-({1-[(2R,4E)-10-acetyl-11,13-dihydroxy-2,12-dimethyl-3,5-dioxo-8-oxatricyclo[7.4.0.0^2,7]trideca-1(13),6,9,11-tetraen-4-ylidene]ethyl}amino)butanoate] | – | – | – | – | – | – | –
< 5.00 | < 5.00 | < 5.00 | – | < 5.00 | CC(=O)c1c(O)c(C)c(O)c2c1OC1=CC(=O)/C(=C(/C)NCCCC(=O)OCCC3=CC[C@H]4C[C@@H]3C4(C)C)C(=O)[C@@]12C [13c, 2-[(1R,5S)-6,6-Dimethylbicyclo[3.1.1]hept-2-en-2-yl]ethyl 4-({1-[(2R,4E)-10-acetyl-11,13-dihydroxy-2,12-dimethyl-3,5-dioxo-8-oxatricyclo[7.4.0.0^2,7]trideca-1(13),6,9,11-tetraen-4-ylidene]ethyl}amino)butanoate] | – | – | – | – | – | – | –
< 5.00 | < 5.00 | < 5.00 | – | < 5.00 | CC(=O)c1c(O)c(C)c(O)c2c1OC1=CC(=O)/C(=C(/C)NCCCC(=O)OCC3=CC[C@H]4C[C@@H]3C4(C)C)C(=O)[C@@]12C [13d, [(1R,5S)-6,6-Dimethylbicyclo[3.1.1]hept-2-en-2-yl]methyl 4-({1-[(2R,4E)-10-acetyl-11,13-dihydroxy-2,12-dimethyl-3,5-dioxo-8-oxatricyclo[7.4.0.0^2,7]trideca-1(13),6,9,11-tetraen-4-ylidene]ethyl}amino)butanoate] | – | – | – | – | – | – | –
< 5.00 | < 5.00 | < 5.00 | – | < 5.00 | C=C(C)[C@@H]1CC=C(COC(=O)CCCN/C(C)=C2\C(=O)C=C3Oc4c(C(C)=O)c(O)c(C)c(O)c4[C@@]3(C)C2=O)CC1 [13e, [(4S)-4-(Prop-1-en-2-yl)cyclohex-1-en-1-yl]methyl 4-({1-[(2R,4E)-10-acetyl-11,13-dihydroxy-2,12-dimethyl-3,5-dioxo-8-oxatricyclo[7.4.0.0^2,7]trideca-1(13),6,9,11-tetraen-4-ylidene]ethyl}amino)butanoate] | – | – | – | – | – | – | –
